Laboratory results: patent publication USRE48253E1, “Methotrexate adjuvants to reduce toxicity and methods for using the same” (Tosk, Inc., priority 2008, dated 2020)

How the values were obtained:
C57BL/6 mice = assay: Mouse Study I: protection from MTX-induced weight loss (LPS/MTX model); assay type: in vivo; details: 10 or 30 mg/kg ip 3 hr before and after MTX; LPS+MTX treated mice
Experimental: C57BL/6 mice (10 animals/treatment group) were dosed on Day 1 with LPS (5 μg, i.p.). On Day 2, the animals were treated with 200 mg/kg MTX+10 or 30 mg/kg TK-112690 3 hr before and 3 hr after the MTX treatment. On Day 3, the animals were dosed MTX 100 mg/kg+10 or 30 mg/kg TK±3 hr. On day 8, the Day 8-Day 1 weight was determined and results subject to ANOVA. Group 1=saline alone, Group 2=MTX alone, Group 3=LPS alone, Group 4=MTX+LPS, Group 5=10 mg/kg TK-112690+MTX+LPS or Group 6=30 mg/kg TK-112690+MTX+LPS.
This mouse model is modified from a published procedure (de Koning et al., Int Immunol 18: 941 (2006)). Mice are treated on day one with a single intraperitoneal (ip) dose of lipopolysaccharide (LPS), followed by two consecutive days with 200 and 100 mg/kg ip methotrexate, respectively. Controls include saline alone for days 1, 2, and 3, saline on day 1 plus MTX on days 2 and 3 and LPS on day one with saline injection on days 2 and 3. Experimental groups are given LPS on day one and 10 or 30 mg/kg, TK-112690, a representative 2,2′-anhydropyrimidine test article, ip 3 hours before, and 3 hours after, methotrexate injection on days 2 and 3. Animal weights are measured every day after the first injection with experiment termination five days after the second methotrexate injection (day 8). Weight loss is representative of MTX-induced toxicity, and one aspect of MTX-induced mucositis. […]

[1] = system: AS283 human lymphoma xenografts; assay: Mouse Study V: xenograft with AS283 implants; assay type: in vivo, C.B.-17 SCID mice; details: p=1.0
Experimental: Six-week-old male SCID mice were implanted with fragments of AS283 human lymphoma tumors. The tumors were allowed to reach 75-198 mg in weight (75-198 mm^3 in size) before the start of treatment. The experiment consisted of two treatment groups and one vehicle-treated control group, with ten animals per group, for a total of 30 mice on the first day of treatment.
TK-112690 was administered by ip injection [twice every 2 days for 5 injections with six hour interval (q6h×2, q2d×5)] at a dosage of 30 mg/kg/injection. MTX was administered by ip injection q2d×5 at a dosage of 5.0 mg/kg/injection three hours after the TK-112690 injection. The control group was treated with both vehicles, which were administered on the corresponding compound schedules.
Six-week-old male C.B.-17 SCID mice were acclimated in the laboratories for seven days prior to experimentation. Thirty-to-forty mg fragments of AS283 human lymphoma tumor were implanted sc in mice near the right flank using a 12-gauge trocar needle and allowed to grow. […]
The sc tumors were measured and the animals were weighed thrice weekly starting the day of the first treatment. Tumor volume was determined by caliper measurements (mm) and using the formula for an ellipsoid sphere: L×W^2/2=mm^3, where L and W refer to the larger and smaller perpendicular dimensions collected at each measurement. […]

With `Cc1cn2c(nc1=O)O[C@H]1[C@H](O)[C@@H](CO)O[C@H]12` [TK-112690, 2,2′-anhydro-5-methyluridine] the “protection from MTX-induced weight loss (Day 8-Day 1 weight)” value (C57BL/6 mice) was “highly significant” and the “tumor volumes Day 21, MTX+TK-112690 vs MTX” value [1] was “no statistical difference”.
